Test results reported in the supplement of paper PMC10307832.

Legend:
Test in all cases: relative viability (nuclei count vs DMSO), 5 days (fraction); higher = more cells survive
NCI-H522 = system: NCI-H522
Outline: (§1)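 Five library-drug doses in √10 steps were combined with a fixed anchor-drug dose, or a single drug was given alone, by pin tool to lung cancer cell lines in 1536-well plates the day after seeding. Nuclei were stained and counted after 5 days. Relative viability is the nuclei count in treated wells over that in vehicle wells, taken as the median of duplicate plates.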

NCI-H1651 = system: NCI-H1651
Outline: as §1

NCI-H838 = system: NCI-H838
Outline: as §1

LCLC-97TM1 = system: LCLC-97TM1
Outline: as §1

NCI-H1793 = system: NCI-H1793
Outline: as §1

HARA = system: HARA
Outline: as §1

201T = system: 201T
Outline: as §1

NCI-H2405 = system: NCI-H2405
Outline: as §1

A-427 = system: A-427
Outline: as §1

NCI-H2347 = system: NCI-H2347
Outline: as §1

RERF-LC-KJ = system: RERF-LC-KJ
Outline: as §1

NCI-H1650 = system: NCI-H1650
Outline: as §1

LOU-NH91 = system: LOU-NH91
Outline: as §1

PC-3 [JPC-3] = system: PC-3 [JPC-3]
Outline: as §1

HCC-78 = system: HCC-78
Outline: as §1

LK-2 = system: LK-2
Outline: as §1

NCI-H23 = system: NCI-H23
Outline: as §1

UMC-11 = system: UMC-11
Outline: as §1

COR-L23 = system: COR-L23
Outline: as §1

NCI-H520 = system: NCI-H520
Outline: as §1

LCLC-103H = system: LCLC-103H
Outline: as §1

LXF-289 = system: LXF-289
Outline: as §1

NCI-H647 = system: NCI-H647
Outline: as §1

For `CCNC(=O)c1noc(-c2cc(C(C)C)c(O)cc2O)c1-c1ccc(CN2CCOCC2)cc1` [Luminespib] + CC(=O)Nc1cccc(-n2c(=O)n(C3CC3)c(=O)c3c(Nc4ccc(I)cc4F)n(C)c(=O)c(C)c32)c1 [Trametinib] (partner 0.02 µM), the relative viability (NCI-H522; first compound 0.002 µM) was 0.721, the relative viability (NCI-H522; first compound 0.006325 µM) was 0.716 and the relative viability (NCI-H522; first compound 0.02 µM) was 0.693. For the same compound, the relative viability (NCI-H522; first compound 0.06325 µM) was 0.635, the relative viability (NCI-H522; first compound 0.2 µM) was 0.501 and the relative viability (NCI-H1651; first compound 0.002 µM) was 0.787. The relative viability (NCI-H1651; first compound 0.006325 µM) was 0.798, the relative viability (NCI-H1651; first compound 0.02 µM) was 0.634 and the relative viability (NCI-H1651; first compound 0.06325 µM) was 0.754. For the same compound, the relative viability (NCI-H1651; first compound 0.2 µM) was 0.609, the relative viability (NCI-H838; first compound 0.002 µM) was 0.582 and the relative viability (NCI-H838; first compound 0.006325 µM) was 0.474. The relative viability (NCI-H838; first compound 0.02 µM) was 0.294, the relative viability (NCI-H838; first compound 0.06325 µM) was 0.093 and the relative viability (NCI-H838; first compound 0.2 µM) was 0.134. It also gave a relative viability (LCLC-97TM1; first compound 0.002 µM) of 0.233, a relative viability (LCLC-97TM1; first compound 0.006325 µM) of 0.186 and a relative viability (LCLC-97TM1; first compound 0.06325 µM) of 0.221. For the same compound, the relative viability (LCLC-97TM1; first compound 0.2 µM) was 0.166, the relative viability (NCI-H1793; first compound 0.002 µM) was 0.428 and the relative viability (NCI-H1793; first compound 0.006325 µM) was 0.333. For the same compound, the relative viability (NCI-H1793; first compound 0.02 µM) was 0.357, the relative viability (NCI-H1793; first compound 0.06325 µM) was 0.187 and the relative viability (NCI-H1793; first compound 0.2 µM) was 0.186. The relative viability (HARA; first compound 0.002 µM) was 0.667, the relative viability (HARA; first compound 0.006325 µM) was 0.614 and the relative viability (HARA; first compound 0.02 µM) was 0.471. It also gave a relative viability (HARA; first compound 0.06325 µM) of 0.121, a relative viability (HARA; first compound 0.2 µM) of 0.141 and a relative viability (201T; first compound 0.002 µM) of 0.667. For the same compound, the relative viability (201T; first compound 0.006325 µM) was 0.706, the relative viability (201T; first compound 0.02 µM) was 0.675 and the relative viability (201T; first compound 0.06325 µM) was 0.67. The relative viability (201T; first compound 0.2 µM) was 0.674, the relative viability (NCI-H2405; first compound 0.002 µM) was 0.669 and the relative viability (NCI-H2405; first compound 0.02 µM) was 0.515. It also gave a relative viability (NCI-H2405; first compound 0.06325 µM) of 0.252, a relative viability (NCI-H2405; first compound 0.2 µM) of 0.202 and a relative viability (A-427; first compound 0.002 µM) of 0.771. It also gave a relative viability (A-427; first compound 0.006325 µM) of 0.74, a relative viability (A-427; first compound 0.02 µM) of 0.632 and a relative viability (A-427; first compound 0.06325 µM) of 0.607. It also gave a relative viability (A-427; first compound 0.2 µM) of 0.281, a relative viability (NCI-H2347; first compound 0.002 µM) of 0.29 and a relative viability (NCI-H2347; first compound 0.006325 µM) of 0.307. It also gave a relative viability (NCI-H2347; first compound 0.02 µM) of 0.269, a relative viability (NCI-H2347; first compound 0.06325 µM) of 0.254 and a relative viability (NCI-H2347; first compound 0.2 µM) of 0.294. For the same compound, the relative viability (RERF-LC-KJ; first compound 0.002 µM) was 0.867, the relative viability (RERF-LC-KJ; first compound 0.006325 µM) was 0.903 and the relative viability (RERF-LC-KJ; first compound 0.02 µM) was 0.711. It also gave a relative viability (RERF-LC-KJ; first compound 0.06325 µM) of 0.437, a relative viability (RERF-LC-KJ; first compound 0.2 µM) of 0.21 and a relative viability (NCI-H1650; first compound 0.002 µM) of 0.571. The relative viability (NCI-H1650; first compound 0.006325 µM) was 0.565, the relative viability (NCI-H1650; first compound 0.02 µM) was 0.178 and the relative viability (NCI-H1650; first compound 0.06325 µM) was 0.1. It also gave a relative viability (NCI-H1650; first compound 0.2 µM) of 0.0947, a relative viability (LOU-NH91; first compound 0.002 µM) of 0.807 and a relative viability (LOU-NH91; first compound 0.006325 µM) of 0.775. It also gave a relative viability (LOU-NH91; first compound 0.02 µM) of 0.6, a relative viability (LOU-NH91; first compound 0.06325 µM) of 0.417 and a relative viability (LOU-NH91; first compound 0.2 µM) of 0.385. For the same compound, the relative viability (PC-3 [JPC-3]; first compound 0.002 µM) was 0.75, the relative viability (PC-3 [JPC-3]; first compound 0.006325 µM) was 0.682 and the relative viability (PC-3 [JPC-3]; first compound 0.02 µM) was 0.517. For the same compound, the relative viability (PC-3 [JPC-3]; first compound 0.06325 µM) was 0.505, the relative viability (PC-3 [JPC-3]; first compound 0.2 µM) was 0.457 and the relative viability (HCC-78; first compound 0.002 µM) was 0.74. For the same compound, the relative viability (HCC-78; first compound 0.006325 µM) was 0.61, the relative viability (HCC-78; first compound 0.02 µM) was 0.572 and the relative viability (HCC-78; first compound 0.06325 µM) was 0.874. It also gave a relative viability (HCC-78; first compound 0.2 µM) of 0.512, a relative viability (LK-2; first compound 0.002 µM) of 0.834 and a relative viability (LK-2; first compound 0.006325 µM) of 0.711. It also gave a relative viability (LK-2; first compound 0.02 µM) of 0.637, a relative viability (LK-2; first compound 0.06325 µM) of 0.164 and a relative viability (LK-2; first compound 0.2 µM) of 0.166. The relative viability (NCI-H23; first compound 0.002 µM) was 0.397, the relative viability (NCI-H23; first compound 0.006325 µM) was 0.424 and the relative viability (NCI-H23; first compound 0.02 µM) was 0.333. It also gave a relative viability (NCI-H23; first compound 0.06325 µM) of 0.13, a relative viability (NCI-H23; first compound 0.2 µM) of 0.156 and a relative viability (UMC-11; first compound 0.002 µM) of 0.496. The relative viability (UMC-11; first compound 0.006325 µM) was 0.685, the relative viability (UMC-11; first compound 0.02 µM) was 0.308 and the relative viability (UMC-11; first compound 0.06325 µM) was 0.212. The relative viability (UMC-11; first compound 0.2 µM) was 0.157, the relative viability (COR-L23; first compound 0.002 µM) was 0.569 and the relative viability (COR-L23; first compound 0.006325 µM) was 0.462. It also gave a relative viability (COR-L23; first compound 0.02 µM) of 0.223, a relative viability (COR-L23; first compound 0.06325 µM) of 0.0665 and a relative viability (COR-L23; first compound 0.2 µM) of 0.0604. For the same compound, the relative viability (NCI-H520; first compound 0.002 µM) was 0.795, the relative viability (NCI-H520; first compound 0.006325 µM) was 0.606 and the relative viability (NCI-H520; first compound 0.02 µM) was 0.371. The relative viability (NCI-H520; first compound 0.06325 µM) was 0.114, the relative viability (NCI-H520; first compound 0.2 µM) was 0.138 and the relative viability (LCLC-103H; first compound 0.002 µM) was 0.625. The relative viability (LCLC-103H; first compound 0.006325 µM) was 0.657, the relative viability (LCLC-103H; first compound 0.02 µM) was 0.699 and the relative viability (LCLC-103H; first compound 0.06325 µM) was 0.693. It also gave a relative viability (LCLC-103H; first compound 0.2 µM) of 0.689, a relative viability (LXF-289; first compound 0.002 µM) of 0.691 and a relative viability (LXF-289; first compound 0.006325 µM) of 0.649. It also gave a relative viability (LXF-289; first compound 0.02 µM) of 0.669, a relative viability (LXF-289; first compound 0.06325 µM) of 0.622 and a relative viability (LXF-289; first compound 0.2 µM) of 0.624. The relative viability (NCI-H647; first compound 0.002 µM) was 0.507, the relative viability (NCI-H647; first compound 0.006325 µM) was 0.508 and the relative viability (NCI-H647; first compound 0.02 µM) was 0.195. It also gave a relative viability (NCI-H647; first compound 0.06325 µM) of 0.0973 and a relative viability (NCI-H647; first compound 0.2 µM) of 0.0815.
